Values joined by “and” are separate entries in the source; they are usually repeats but may differ in a detail not shown here. Equal entries are not always repeated.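 These data come from cells grown in 96-well plates and exposed to compound for 48 hours at five concentrations. GI50 = concentration required for 50% inhibition of growth. TGI is the concentration that stops growth completely.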
Experiments:
Assay in all cases: DTP human tumour cell line panel, 48 h
OVCAR-5 ovarian = system: OVCAR-5 ovarian
MALME-3M melanoma = system: MALME-3M melanoma
UACC-62 melanoma = system: UACC-62 melanoma
PC-3 prostate = system: PC-3 prostate
NCI-H522 lung = system: NCI-H522 lung
CAKI-1 renal = system: CAKI-1 renal
IGROV1 ovarian = system: IGROV1 ovarian
EKVX NSCLC = system: EKVX NSCLC
SW-620 colon = system: SW-620 colon
UACC-257 melanoma = system: UACC-257 melanoma

Compound | TGI (OVCAR-5 ovarian) | TGI (MALME-3M melanoma) | TGI (UACC-62 melanoma) | TGI (PC-3 prostate) | TGI (NCI-H522 lung) | TGI (CAKI-1 renal) | TGI (IGROV1 ovarian) | TGI (EKVX NSCLC) | TGI (SW-620 colon) | TGI (UACC-257 melanoma) | GI50 (OVCAR-5 ovarian) | GI50 (MALME-3M melanoma) | GI50 (UACC-62 melanoma) | GI50 (PC-3 prostate) | GI50 (NCI-H522 lung) | GI50 (IGROV1 ovarian) | GI50 (EKVX NSCLC) | GI50 (SW-620 colon) | GI50 (UACC-257 melanoma) [µM] | GI50 (CAKI-1 renal)
CC(C)(C)c1ccc(O)c(CN(Cc2cc(C(C)(C)C)ccc2O)c2ccccc2)c1 | 31.8 µM | 29.9 µM | 28.4 µM | 42.1 µM | 26.9 µM | > 100 µM | 47.7 µM | 37.1 µM | 37.6 µM | 12.4 µM |  |  |  |  |  |  |  |  |  | 
Clc1ccc(-c2c(C3=NCCCN3)nnn2-c2ccc(Cl)cc2)cc1 | > 89.8 µM | 33 µM | 36 µM | > 68.4 µM | 64.3 µM | > 94.1 µM | > 100 µM | > 100 µM | > 76.5 µM | 44.1 µM |  |  |  |  |  |  |  |  |  | 
COC(=O)C12C3C4C1C1C2C3C41NC(=O)c1csc([C@@H](C[C@H](C(C)C)N(C)C(=O)[C@@H](NC(=O)[C@H]2CCCCN2C)C2CC2)OC(C)=O)n1 (stereo partly drawn) | > 33.3 µM | > 33.3 µM | > 33.3 µM | > 33.3 µM | 1.27 µM |  | > 33.3 µM | > 33.3 µM | > 33.3 µM | > 33.3 µM | 0.294 µM | 0.0581 µM | 0.00595 µM | 0.0482 µM | 0.00401 µM | 0.0226 µM | 0.08 µM | 0.00746 µM | > 16.6 | 
Cc1ccc(NC(=O)c2sc3nc(C)c(C(O)c4ccccc4)cc3c2N)cc1 (stereo not drawn) | 24.1 µM | 53.7 µM | > 100 µM | 20.7 µM | > 48.7 µM | 25.9 µM | 36.8 µM | > 100 µM | 52.7 µM | > 100 µM | 0.698 µM | 0.476 µM | 0.621 µM | 0.429 µM | 0.617 µM | 0.634 µM | 0.733 µM | 0.355 µM | 4.09 | 0.45 µM
Cc1ccc2c(c1)CN(C(=O)CCC(=O)OCc1ccccc1)c1ccc(C)cc1CN2C(=O)CCC(=O)OCc1ccccc1 | > 100 µM | > 100 µM | > 100 µM | > 100 µM | > 100 µM | > 100 µM | > 100 µM | > 100 µM | > 100 µM | > 100 µM |  |  |  |  |  |  |  |  |  | 
CC(C)(C)c1cc(NC(=O)Cc2ccc(-c3cnc4cc(-c5cnn(CCN6CCOCC6)c5)ccc4n3)cc2)no1 | 50 µM and > 100 µM and > 3 µM | 11.3 µM and 2.82 µM | 50 µM and > 100 µM and > 3 µM | 50 µM and > 100 µM and > 3 µM | 50 µM and > 100 µM and > 3 µM | 50 µM and > 100 µM and > 3 µM | 0.65 µM and 1.11 µM | 50 µM and > 100 µM and > 3 µM | 9.2 µM and 67.1 µM and > 1.25 µM | 50 µM and > 100 µM and > 3 µM |  | 0.187 µM and 0.278 µM and 0.0505 µM | 0.26 µM and 0.364 µM and 0.0552 µM | 0.481 µM and 1.02 µM and 0.135 µM | 0.298 µM and 0.465 µM and 0.0962 µM | 0.106 µM and 0.104 µM | 0.829 µM and 0.459 µM and 0.144 µM | 0.22 µM and 0.414 µM and 0.0878 µM |  | 0.123 µM and 0.219 µM and 0.0253 µM
c1cc2c(ncc3cscc32)s1 | > 100 µM | > 100 µM | > 31.6 µM | > 100 µM | > 100 µM | > 100 µM | > 31.6 µM | > 100 µM | > 100 µM | > 100 µM |  |  |  |  |  |  |  |  |  | 
Cc1ccc2c3c(c(=O)[nH]c2c1)C1(C(C#N)=C(N)O3)c2cc(Br)ccc2-c2ccc(Br)cc21 | 4.75 µM | 3.15 µM | 11.3 µM | 4 µM | 4.32 µM | 3.23 µM | 3.75 µM | 3.82 µM | 4.22 µM | 5.24 µM | 2.02 µM | 1.51 µM | 2.19 µM | 1.85 µM | 1.61 µM | 1.6 µM | 1.74 µM | 1.86 µM | 2.32 | 1.56 µM
Fc1ccc(-c2nn3ncccc3c2-c2ccnc(Nc3ccc4c(c3)OCCO4)n2)cc1 | > 25 µM | > 25 µM | 9.12 µM | > 25 µM | 10.7 µM | > 17.2 µM | > 11.5 µM | > 25 µM | > 18.9 µM | 19.7 µM | 14 µM | 14.1 µM | 3.97 µM | 7.32 µM | 3.56 µM | 0.595 µM | 2.16 µM | 5.82 µM | 6.22 | 0.891 µM
CON(C)C(=O)N1N=C(c2cc(F)ccc2F)SC1(CCCN)c1ccccc1 (stereo not drawn) | 15.1 µM and 15.8 µM | 31.6 µM and 28.3 µM | 18.8 µM and 16.2 µM | 15 µM and 14.2 µM | 10.7 µM and 5.31 µM | 17.3 µM and 18.1 µM | 32.2 µM and 27.5 µM |  | 15.6 µM and 16 µM | 21.7 µM and 22.3 µM | 0.0576 µM and < 0.01 µM | 13.3 µM and 10.5 µM | 0.0618 µM and < 0.01 µM | 0.0179 µM and < 0.01 µM | 0.0201 µM and < 0.01 µM | 6.28 µM and 4.85 µM |  | < 0.01 µM |  | 0.238 µM
CN1C(=O)c2ccccc2NC(=O)C12O[C@@H]2c1cccc(O)c1 (stereo partly drawn) | > 100 µM | > 100 µM | > 100 µM | > 100 µM | > 100 µM | > 100 µM | > 100 µM | > 100 µM | > 100 µM | > 100 µM |  |  |  |  |  |  |  |  |  | 
O=C(/C=C\n1cnc(-c2cc(C(F)(F)F)cc(C(F)(F)F)c2)n1)NNc1cnccn1 | 16.3 µM | 10.5 µM | 6.83 µM | 15.7 µM | 6.42 µM | 12 µM | 14.8 µM | 14.5 µM | 13.3 µM | 16.6 µM | 0.189 µM | 0.135 µM | 0.232 µM | 0.128 µM | 0.128 µM | 0.223 µM | 0.0853 µM | 0.0472 µM | 0.188 | 0.0414 µM
CS(=O)(=O)c1cc(=O)c2ccccc2s1 | 22.3 µM | 3.5 µM | 27.3 µM | 33.4 µM | 3.32 µM | 4.49 µM | 41.2 µM | 21.4 µM | 3.4 µM | 7.92 µM |  |  |  |  |  |  |  |  |  | 
Nc1nc(-c2cccc(Cl)c2)c(-c2ccc3ncccc3n2)s1 | > 25 µM | > 25 µM | > 25 µM | > 25 µM | > 25 µM | > 25 µM | > 25 µM | > 25 µM | > 25 µM | > 25 µM | > 25 µM | > 25 µM | > 25 µM | > 25 µM | > 25 µM | 22.4 µM | > 25 µM | > 25 µM | > 25 | > 25 µM
COc1ccc(OC)c(C(=O)c2oc3ccc(Br)cc3c2N)c1 | > 51.7 µM | 46.8 µM | 14.3 µM | > 51 µM | 4.14 µM | > 100 µM | > 87.4 µM |  | > 66.8 µM | 21.8 µM | 1.56 µM | 0.339 µM | 0.432 µM | 0.58 µM | 0.321 µM | 2.13 µM |  | 0.332 µM | 0.392 | 0.372 µM
COC(=O)c1c(C)[nH]c(/C=C2\N=C(c3ccc[nH]3)C=C2OC)c1C | 3.9 µM | 2.02 µM | 0.921 µM | > 100 µM | 2.44 µM |  | 1.62 µM | 3.28 µM |  | 1.52 µM | 1.4 µM | 0.525 µM | 0.287 µM | 0.349 µM | 0.367 µM | 0.147 µM | 1.07 µM | 0.0365 µM | 0.339 | 
CCc1oc2ccccc2c1C(=O)c1cc(I)c(O)c(I)c1 | 25.1 µM | 7.9 µM | 16.8 µM | 19.5 µM | 12.9 µM | 10.8 µM |  | 15.4 µM | 12.6 µM | 21.1 µM | 11.4 µM | 1.41 µM | 3.32 µM | 3.75 µM | 1.84 µM |  | 3.59 µM | 2.39 µM | 6.13 | 2.3 µM
O=C(/C(=C/c1cccc([N+](=O)[O-])c1)c1ccccc1)c1ccccc1 | 25.8 µM | 5.81 µM | 12.1 µM | 36.2 µM | 3.77 µM | 10.2 µM | 27.8 µM |  | 9.19 µM | 18.8 µM | 5.56 µM | 2.32 µM | 2.8 µM | 4.54 µM | 1.91 µM | 3.38 µM |  | 3.1 µM | 4.17 | 3.18 µM
Cn1c2ccccc2c2c3[nH]c(=O)[nH]c(=O)c3c3c4ccccc4n(C)c3c21 | > 100 µM | 6.14 µM | > 100 µM | > 100 µM | 12.8 µM |  | 12 µM | 47.2 µM | > 100 µM | > 100 µM | 3 µM | 2.03 µM | 6.64 µM | 30.1 µM | 1.9 µM | 2.14 µM | 2.54 µM | 2.67 µM | > 100 | 
COc1ccc(-n2cc(-c3cc(OC)c(OC)c(OC)c3)[nH]c2=O)cc1Cl | > 100 µM | > 100 µM | > 100 µM | > 100 µM | > 100 µM | > 100 µM | > 100 µM | > 100 µM | > 100 µM |  | > 100 µM | > 100 µM | 51.1 µM | > 100 µM | > 100 µM | > 100 µM | > 100 µM | > 100 µM |  | > 100 µM
COc1ccc(C2SCC(=O)N2NC(=O)Nc2c(C)nc3ccccn23)cc1 (stereo not drawn) | > 100 µM |  | > 100 µM | > 100 µM | 95.4 µM | > 100 µM | > 100 µM | > 100 µM | > 100 µM | > 100 µM | 28.9 µM |  | 39.6 µM | 77.2 µM | 32.8 µM | 38.6 µM | 63 µM | > 100 µM | > 100 | > 100 µM

From PubChem BioAssay (NCI)
